Results from PMC5384453, “A multi-functional PEGylated gold(III) compound: potent anti-cancer properties and self-assembly into nanostructures for drug co-delivery” (Chemical Science, 2016).

Tested on: human cancer cell lines
Assay: In vitro cytotoxicity toward cancer cells compared to cisplatin (MTT)
Type: cell-based
Settings: MTT 72 h
Procedure: The in vitro cytotoxicity of 1–3 and Au1a to human cancer cell lines (HeLa, NCI-H460, HCT116, A2780) and the cisplatin- and doxorubicin-resistant cancer cell lines (A2780cis and A2780adr), as well as normal human colon mucosal epithelial cell line (NCM460), non-tumorigenic immortalized liver cells (MIHA) and normal lung fibroblast cells (CCD-19Lu), was evaluated using a 3-(4,5-dimethyl-2-thiazolyl)-2,5-diphenyltetrazolium bromide (MTT) assay (Table 1; Fig. S5a ^†). […] The low toxicity of 1 was also found in experiments with non-tumorigenic liver L02 and gliocyte CHEM-5 cells (Table S5 ^†). […]
The gold content of the nanocomposites was determined by dissolving the nanocomposites in conc. […]
The content of DOX in the nanocomposites was measured as follows. […] The solution was then diluted and filtered, and the content of DOX in the nanocomposite was determined by UPLC with photodiode array detector using daunorubicin hydrochloride (3.6 µM) as the internal standard. […]
hydrochloride standard over the peak area of daunorubicin hydrochloride (3.6 µM) in the UPLC chromatograms of the doxorubicin hydrochloride standard spiked with daunorubicin hydrochloride (3.6 µM). The encapsulation efficiency of DOX by nanostructures of 1 was calculated by the equation: […]
which reflected the amount of blue formazan formed. IC50 values were then determined by CompuSyn S6 from three independent measurements. […]

## [Au(TPP–COO–PEG5000–OCH3)]Cl [Compound 1]
  times more cytotoxic than cisplatin: 5.1–76.9 times
